Measurements from PubChem BioAssay AID248 (DTP/NCI, 2004).
Where “and” joins values, the source holds several entries; their conditions need not be identical. Equal entries are not always repeated. Toxic doses and inconclusive results are not listed.

Tested on: L1210 leukemia ip in BDF1 mice, survival T/C
Experiment: NCI In Vivo Anticancer Drug Screen. Data for tumor model L1210 Leukemia (intraperitoneal) in B6D2F1 (BDF1) mice
Details: endpoint: mean survival time, higher = longer survival
Summary of the method: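 Tumor cells were implanted, animals were treated, and survival was followed. The result divides the treated measurement by the vehicle-control measurement.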

[1] = dose: 100.0 mg/kg/injection, schedule: Q04DX003 (ip), vehicle: saline
[2] = dose: 200.0 mg/kg/injection, schedule: Q04DX003 (ip), vehicle: saline
[3] = dose: 100.0 mg/kg/injection, schedule: Q04DX003 (ip), vehicle: Klucel (hydroxypropylcellulose) (HPC)
[4] = dose: 200.0 mg/kg/injection, schedule: Q04DX003 (ip), vehicle: Klucel (hydroxypropylcellulose) (HPC)
[5] = dose: 400.0 mg/kg/injection, schedule: Q04DX003 (ip), vehicle: Klucel (hydroxypropylcellulose) (HPC)

Structure (SMILES): CC(C)NCC(=O)c1ccc(O)c(O)c1
- T/C (dose: 20.0 mg/kg/injection, schedule: Q01DX Z (ip), vehicle: saline): 98 % of control
- T/C (dose: 20.0 mg/kg/injection, schedule: Q#A X Z (ip), vehicle: methylcellulose (MC)): 96 % of control
- T/C (dose: 25.0 mg/kg/injection, schedule: Q01DX Z (ip), vehicle: carboxymethylcellulose (CMC)): 107 % of control
- T/C (dose: 25.0 mg/kg/injection, schedule: Q03DX Z (ip), vehicle: carboxymethylcellulose (CMC)): 93 % of control
- T/C (dose: 29.0 mg/kg/injection, schedule: Q03HX024 (ip), vehicle: saline): 95 % of control
- T/C (dose: 31.0 mg/kg/injection, schedule: Q01DX Z (ip), vehicle: carboxymethylcellulose (CMC)): 106 % of control
- T/C (dose: 40.0 mg/kg/injection, schedule: Q01DX Z (ip), vehicle: saline): 107 % of control and 89 % of control
- T/C (dose: 43.0 mg/kg/injection, schedule: Q03HX024 (ip), vehicle: saline): 104 % of control
- T/C (dose: 49.0 mg/kg/injection, schedule: Q01DX Z (ip), vehicle: saline): 122 % of control
- T/C (dose: 50.0 mg/kg/injection, schedule: Q01DX001 (ip), vehicle: saline): 96 % of control
- T/C (dose: 50.0 mg/kg/injection, schedule: Q01DX Z (ip), vehicle: carboxymethylcellulose (CMC)): 104 % of control
- T/C (dose: 50.0 mg/kg/injection, schedule: Q03DX Z (ip), vehicle: carboxymethylcellulose (CMC)): 93 % of control
- T/C (dose: 59.0 mg/kg/injection, schedule: Q04DX003 (ip), vehicle: saline): 94 % of control
- T/C (dose: 62.0 mg/kg/injection, schedule: Q01DX Z (ip), vehicle: carboxymethylcellulose (CMC)): 119 % of control
- T/C (dose: 64.0 mg/kg/injection, schedule: Q03HX024 (ip), vehicle: saline): 105 % of control
- T/C (dose: 80.0 mg/kg/injection, schedule: Q01DX Z (ip), vehicle: saline): 97 % of control and 119 % of control
- T/C (dose: 88.0 mg/kg/injection, schedule: Q04DX003 (ip), vehicle: saline): 100 % of control
- T/C (dose: 96.0 mg/kg/injection, schedule: Q03HX024 (ip), vehicle: saline): 106 % of control
- T/C (dose: 100.0 mg/kg/injection, schedule: Q01DX001 (ip), vehicle: saline): 107 % of control
- T/C (dose: 100.0 mg/kg/injection, schedule: Q01DX009 (ip), vehicle: saline): 104 % of control
- T/C (dose: 100.0 mg/kg/injection, schedule: Q01DX Z (ip), vehicle: carboxymethylcellulose (CMC)): 115 % of control
- T/C (dose: 100.0 mg/kg/injection, schedule: Q03DX Z (ip), vehicle: carboxymethylcellulose (CMC)): 100 % of control
- T/C [1]: 103 % of control
- T/C (dose: 120.0 mg/kg/injection, schedule: Q03DX Z (ip), vehicle: methylcellulose (MC)): 102 % of control
- T/C (dose: 125.0 mg/kg/injection, schedule: Q01DX Z (ip), vehicle: carboxymethylcellulose (CMC)): 105 % of control
- T/C (dose: 131.0 mg/kg/injection, schedule: Q04DX003 (ip), vehicle: saline): 98 % of control
- T/C (dose: 143.0 mg/kg/injection, schedule: Q01DX009 (ip), vehicle: saline): 114 % of control
- T/C (dose: 143.0 mg/kg/injection, schedule: Q03HX024 (ip), vehicle: saline): 101 % of control and 118 % of control
- T/C (dose: 160.0 mg/kg/injection, schedule: Q01DX Z (ip), vehicle: saline): 104 % of control and 121 % of control
- T/C (dose: 196.0 mg/kg/injection, schedule: Q04DX003 (ip), vehicle: saline): 104 % of control
- T/C (dose: 200.0 mg/kg/injection, schedule: Q01DX001 (ip), vehicle: saline): 107 % of control
- T/C (dose: 200.0 mg/kg/injection, schedule: Q01DX009 (ip), vehicle: saline): 115 % of control
- T/C (dose: 200.0 mg/kg/injection, schedule: Q03DX Z (ip), vehicle: carboxymethylcellulose (CMC)): 100 % of control
- T/C [2]: 109 % of control
- T/C (dose: 210.0 mg/kg/injection, schedule: Q01DX009 (ip), vehicle: saline): 184 % of control
- T/C (dose: 210.0 mg/kg/injection, schedule: Q03HX024 (ip), vehicle: saline): 116 % of control
- T/C (dose: 240.0 mg/kg/injection, schedule: Q03DX Z (ip), vehicle: methylcellulose (MC)): 113 % of control
- T/C (dose: 288.0 mg/kg/injection, schedule: Q01DX001 (ip), vehicle: saline): 102 % of control
- T/C (dose: 288.0 mg/kg/injection, schedule: Q04DX003 (ip), vehicle: saline): 154 % of control
- T/C (dose: 320.0 mg/kg/injection, schedule: Q01DX009 (ip), vehicle: saline): 104 % of control
- T/C (dose: 320.0 mg/kg/injection, schedule: Q03HX024 (ip), vehicle: saline): 111 % of control
- T/C (dose: 400.0 mg/kg/injection, schedule: Q01DX001 (ip), vehicle: saline): 107 % of control
- T/C (dose: 400.0 mg/kg/injection, schedule: Q01DX009 (ip), vehicle: saline): 107 % of control
- T/C (dose: 400.0 mg/kg/injection, schedule: Q01DX Z (ip), vehicle: carboxymethylcellulose (CMC)): 111 % of control
- T/C (dose: 400.0 mg/kg/injection, schedule: Q03DX Z (ip), vehicle: carboxymethylcellulose (CMC)): 114 % of control
- T/C (dose: 400.0 mg/kg/injection, schedule: Q04DX003 (ip), vehicle: saline): 104 % of control
- T/C (dose: 430.0 mg/kg/injection, schedule: Q04DX003 (ip), vehicle: saline): 103 % of control
- T/C (dose: 478.0 mg/kg/injection, schedule: Q01DX009 (ip), vehicle: saline): 116 % of control
- T/C (dose: 480.0 mg/kg/injection, schedule: Q03DX Z (ip), vehicle: methylcellulose (MC)): 102 % of control

Structure (SMILES): O=C(O)C(=O)Cc1nnn(-c2ccccc2)c1-c1ccccc1
- T/C (dose: 75.0 mg/kg/injection, schedule: Q01DX001 (ip), vehicle: acetone): 95 % of control
- T/C (dose: 150.0 mg/kg/injection, schedule: Q01DX001 (ip), vehicle: acetone): 101 % of control
- T/C (dose: 300.0 mg/kg/injection, schedule: Q01DX001 (ip), vehicle: acetone): 95 % of control

Structure (SMILES): CC1CCCCC1C(=O)N1CCCC1 (stereo not given)
- T/C (dose: 100.0 mg/kg/injection, schedule: Q04DX002 (ip), vehicle: saline): 101 % of control
- T/C (dose: 200.0 mg/kg/injection, schedule: Q04DX002 (ip), vehicle: saline): 105 % of control

Structure (SMILES): CCS(=O)(=O)C(S(C)(=O)=O)S(=O)(=O)C(C)C (stereo not given)
- T/C [3]: 92 % of control
- T/C [4]: 96 % of control
- T/C [5]: 89 % of control

Structure (SMILES): Nc1cc[n+](-c2ccc([N+](=O)[O-])cc2[N+](=O)[O-])cc1
- T/C (dose: 12.5 mg/kg/injection, schedule: Q01DX009 (ip), vehicle: Klucel (hydroxypropylcellulose) (HPC)): 98 % of control
- T/C (dose: 25.0 mg/kg/injection, schedule: Q01DX009 (ip), vehicle: Klucel (hydroxypropylcellulose) (HPC)): 100 % of control

Structure (SMILES): CCO/C=N/c1oc(-c2ccccc2)nc1C#N
- T/C (dose: 100.0 mg/kg/injection, schedule: Q04DX002 (ip), vehicle: Klucel (hydroxypropylcellulose) (HPC)): 91 % of control
- T/C (dose: 200.0 mg/kg/injection, schedule: Q04DX002 (ip), vehicle: Klucel (hydroxypropylcellulose) (HPC)): 96 % of control

Structure (SMILES): O=[N+]([O-])c1ccc(S(=O)(=O)N2CCN(S(=O)(=O)c3ccc([N+](=O)[O-])cc3)C2)cc1
- T/C (dose: 50.0 mg/kg/injection, schedule: Q01DX009 (ip), vehicle: Klucel (hydroxypropylcellulose) (HPC)): 93 % of control
- T/C (dose: 100.0 mg/kg/injection, schedule: Q01DX009 (ip), vehicle: Klucel (hydroxypropylcellulose) (HPC)): 87 % of control and 91 % of control
- T/C [3]: 91 % of control
- T/C (dose: 200.0 mg/kg/injection, schedule: Q01DX009 (ip), vehicle: Klucel (hydroxypropylcellulose) (HPC)): 93 % of control
- T/C [4]: 94 % of control
- T/C (dose: 400.0 mg/kg/injection, schedule: Q01DX009 (ip), vehicle: Klucel (hydroxypropylcellulose) (HPC)): 101 % of control
- T/C [5]: 98 % of control

Structure (SMILES): CC1(C)N=C2OCCN2C1=O
- T/C (dose: 12.5 mg/kg/injection, schedule: Q04DX003 (ip), vehicle: saline): 101 % of control
- T/C (dose: 25.0 mg/kg/injection, schedule: Q04DX003 (ip), vehicle: saline): 111 % of control
- T/C (dose: 50.0 mg/kg/injection, schedule: Q04DX003 (ip), vehicle: saline): 93 % of control
- T/C [1]: 101 % of control
- T/C [2]: 98 % of control and 102 % of control
- T/C (dose: 300.0 mg/kg/injection, schedule: Q04DX003 (ip), vehicle: saline): 104 % of control

Structure (SMILES): C#CCOCC(CCl)OC(N)=O (stereo not given)
- T/C (dose: 50.0 mg/kg/injection, schedule: Q01DX009 (ip), vehicle: saline with Tween-80): 121 % of control
- T/C (dose: 50.0 mg/kg/injection, schedule: Q04DX003 (ip), vehicle: saline with Tween-80): 104 % of control
- T/C (dose: 100.0 mg/kg/injection, schedule: Q01DX009 (ip), vehicle: saline with Tween-80): 105 % of control
- T/C (dose: 100.0 mg/kg/injection, schedule: Q04DX003 (ip), vehicle: saline with Tween-80): 101 % of control
- T/C (dose: 200.0 mg/kg/injection, schedule: Q01DX009 (ip), vehicle: saline with Tween-80): 106 % of control
- T/C (dose: 200.0 mg/kg/injection, schedule: Q04DX003 (ip), vehicle: saline with Tween-80): 110 % of control
